# Source: patent publication US5663148A, “Anaphylatoxin receptor ligands containing lipophilic residues” (Abbott Laboratories, priority 1994, dated 1997)
# Where a SMILES comes first, the peptide text is derived from it. [ ]: non-standard residue; d: D form. The star is where a group is joined. Pentanoyl(5-Ph) = O=C(CCCCc1ccccc1)*; d(hhPhe) = N[C@H](CCCc1ccccc1)C(=O)O; hhPhe = N[C@@H](CCCc1ccccc1)C(=O)O; Hydrocinnamoyl = O=C(CCc1ccccc1)*; Cha = N[C@@H](CC1CCCCC1)C(=O)O; X3 = Nc1ccccc1C=CC(=O)*; X8 = c1ccc(CCC*)cc1; Bn = c1ccc(C*)cc1
# Target: T1, C5a receptor (Homo sapiens, UniProt P21730)
# T1 construct: from tissue; host or cells: polymorphonuclear leukocyte (PMNL) membrane fragments
# T1 sequence (P21730 1-350): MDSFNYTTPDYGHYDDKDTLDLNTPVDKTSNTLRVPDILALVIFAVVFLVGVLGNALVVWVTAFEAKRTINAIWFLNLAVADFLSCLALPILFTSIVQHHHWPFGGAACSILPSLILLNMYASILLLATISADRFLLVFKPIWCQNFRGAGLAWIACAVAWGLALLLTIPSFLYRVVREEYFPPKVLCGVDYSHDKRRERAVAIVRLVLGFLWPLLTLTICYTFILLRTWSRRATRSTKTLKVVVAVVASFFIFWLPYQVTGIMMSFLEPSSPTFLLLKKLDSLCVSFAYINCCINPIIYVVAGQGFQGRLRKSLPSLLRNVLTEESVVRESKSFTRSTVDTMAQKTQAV
# Assay: Anaphylatoxin (C5a) receptor binding Ki determination, 125I-C5a on PMNL membrane fragments
# Conditions: read-out: Ki (In vitro C5a Receptor Binding Potency)
# Experimental: The membrane-bound radiolabeled C5a was separated from the free radiolabeled C5a by filtration, and the recovered gamma radioactivity was measured. […] Free and membrane-bound ligand were separated by filtration.
row,SMILES,Ki [µM]
1,"CC(C)C[C@H](NC(=O)CNC(=O)[C@H](CC1CCCCC1)N(C)C(=O)CCCCN)C(=O)NC(CCCc1ccccc1)C(=O)N[C@@H](CCCNC(=N)N)C(=O)O (single isomer, unassigned) [Example 37]",3.2
2,"CC(C)C[C@H](NC(=O)CNC(=O)C=Cc1ccccc1N)C(=O)N[C@H](CCCc1ccccc1)C(=O)N[C@@H](CCCNC(=N)N)C(=O)O [Example 106, N-(2-Aminocinnamoyl)-Glycyl-Leucyl-{(R)-2-Amino-5-phenylpentanoyl}-Arginyl-OH] (X3-GL[d(hhPhe)]R-OH)",0.41
3,"CSCC[C@H](NC(=O)[C@H](CC(=O)O)NC(=O)[C@@H](N)CCCCN)C(=O)N[C@@H](CCC(N)=O)C(=O)N[C@@H](CC(C)C)C(=O)NC(CCCc1ccccc1)C(=O)N[C@@H](CCCNC(=N)N)C(=O)O (single isomer, unassigned) [Example 39, H-Lysyl-Aspartyl-Methionyl-Glutaminyl-Leucyl-{(R/S)-2-Amino-5-phenylpentanoyl}-Arginyl-OH]",71
4,"CC(C)C[C@H](NC(=O)CNC(=O)C(N)CCCc1ccccc1)C(=O)N[C@H](CCCc1ccccc1)C(=O)N[C@@H](CCCNC(=N)N)C(=O)O (single isomer, unassigned) [Example 104]",2.4
5,"CC(C)C[C@H](NC(=O)CNC(=O)[C@H](CC1CCCCC1)NC(=O)CCCCc1ccccc1)C(=O)N[C@H](CCCc1ccccc1)C(=O)N[C@@H](CCCNC(=N)N)C(=O)O [Example 62, N-(5-Phenylvaleryl)-{(2S)-2-Amino-3-cyclohexylpropanoyl}-Glycyl-Leucyl-{(R)-2-Amino-5-phenylpentanoyl}-Arginyl-OH] ({Pentanoyl(5-Ph)}-[Cha]GL[d(hhPhe)]R-OH)",1.07
6,"CC(C)C[C@H](NC(=O)CNC(=O)[C@H](CC1CCCCC1)NC(=O)CCN)C(=O)NC(CCCc1ccccc1)C(=O)N[C@@H](CCCNC(=N)N)C(=O)O (single isomer, unassigned) [Example 84]",3.9
7,"CC(=O)N[C@@H](CC1CCCCC1)C(=O)NCC(=O)N[C@@H](CC(C)C)C(=O)NC(CCCc1ccccc1)C(=O)N[C@@H](CCCNC(=N)N)C(=O)O (single isomer, unassigned) [Example 46, N-Acetyl-{(2S)-2-Amino-3-cyclohexylpropanoyl}-Glycyl-Leucyl-{(R/S)-2-Amino-5-phenylpentanoyl}-Arginyl-OH]",22
8,"CC(C)C[C@H](NC(=O)CNC(=O)[C@H](CC1CCCCC1)NC(=O)CCc1ccccc1)C(=O)N[C@H](CCCc1ccccc1)C(=O)N[C@@H](CCCNC(=N)N)C(=O)O [Example 49, N-(3-Phenylpropanoyl)-{(2S)-2-Amino-3-cyclohexylpropanoyl}-Glycyl-Leucyl-{(R)-2-Amino-5-phenylpentanoyl}-Arginyl-OH] (Hydrocinnamoyl-[Cha]GL[d(hhPhe)]R-OH)",0.72
9,"CSCC[C@H](NC(=O)[C@H](CC(=O)O)NC(=O)[C@@H](N)CCCCN)C(=O)N[C@@H](CCC(N)=O)C(=O)N[C@@H](CC(C)C)C(=O)NC(CCCc1ccccc1)C(=O)N[C@@H](CCCNC(=N)N)C(=O)O (single isomer, unassigned) [Example 40, H-Lysyl-Aspartyl-Methionyl-Glutaminyl-Leucyl-{(R/S)-2-Amino-5-phenylpentanoyl}-Arginyl-OH]",1.1
10,"CC(C)C[C@H](NC(=O)[C@@H]1CCCN1C(=O)[C@H](CC1CCCCC1)NC(=O)CNC(=O)CCCCCN)C(=O)NC(CCCc1ccccc1)C(=O)N[C@@H](CCCNC(=N)N)C(=O)O (single isomer, unassigned) [Example 111]",1
11,"CC(C)C[C@H](NC(=O)CNC(=O)[C@H](CC1CCCCC1)NC(=O)CCN)C(=O)NC(CCCc1ccccc1)C(=O)N[C@@H](CCCNC(=N)N)C(=O)O (single isomer, unassigned) [Example 85]",2
12,"CC(C)C[C@H](NC(=O)CNC(=O)[C@H](CC1CCCCC1)NC(=O)[C@H](N)CCCCN)C(=O)NC(CCCc1ccccc1)C(=O)N[C@@H](CCCNC(=N)N)C(=O)O (single isomer, unassigned) [Example 56]",26.8
13,"CC(C)C[C@H](NC(=O)[C@H](C)NC(=O)[C@H](CC1CCCCC1)NC(=O)[C@@H]1CCCN1C(=O)[C@H](CCCCN)NC(=O)CN)C(=O)N[C@H](CSCc1ccccc1)C(=O)N[C@@H](CCCNC(=N)N)C(=O)O [Example 31, H-Glycyl-Lysyl-Propyl-{(2S)-2-Amino-3-cyclohexylpropanoyl}-Alanyl-Leucyl-DCysteinyl(S-benzyl)-Arginyl-OH] (H-GKP[Cha]AL[dC](Bn)R-OH)",1.1
14,"CC(C)C[C@H](NC(=O)CN(C)C(=O)[C@H](CC1CCCCC1)NC(=O)CCCCCCN)C(=O)NC(CCCc1ccccc1)C(=O)N[C@@H](CCCNC(=N)N)C(=O)O (single isomer, unassigned) [Example 60]",19
15,"CC(=O)N[C@@H](CC1CCCCC1)C(=O)NCC(=O)N[C@@H](CC(C)C)C(=O)NC(CCCc1ccccc1)C(=O)N[C@@H](CCCNC(=N)N)C(=O)O (single isomer, unassigned) [Example 45]",7.58
16,"CC(C)C[C@H](NC(=O)CNC(=O)[C@@H](CC1CCCCC1)NC(=O)CCCCCN)C(=O)NC(CCCc1ccccc1)C(=O)N[C@@H](CCCNC(=N)N)C(=O)O (single isomer, unassigned) [Example 34]",21.6
17,"CC(C)C[C@H](NC(=O)CNC(=O)C=C1CNc2ccccc21)C(=O)N[C@H](CCCc1ccccc1)C(=O)N[C@@H](CCCNC(=N)N)C(=O)O (single isomer, unassigned) [Example 66]",0.046
18,"CC(C)C[C@H](NC(=O)[C@H](C)NC(=O)[C@H](CC1CCCCC1)NC(=O)[C@@H]1CCCN1C(=O)[C@H](CCCCN)NC(=O)[C@@H](N)Cc1ccccc1)C(=O)N[C@@H](CCCc1ccccc1)C(=O)N[C@@H](CCCNC(=N)N)C(=O)O [Example 3, H-Phenylalanyl-Lysyl-Prolyl-{(2S)-2-Amino-3-cyclohexylpropanoyl}-Alanyl-Leucyl-{(S)-2-Amino-5-phenylpentanoyl}-Arginyl-OH] (H-FKP[Cha]AL[hhPhe]R-OH)",0.013
19,"CC(C)C[C@H](NC(=O)CCNC(=O)[C@H](CC1CCCCC1)NC(=O)CCCCCN)C(=O)NC(CCCc1ccccc1)C(=O)N[C@@H](CCCNC(=N)N)C(=O)O (single isomer, unassigned) [Example 114]",18.6
20,"CC(C)C[C@H](NC(=O)CCCc1c[nH]c2ccccc12)C(=O)NC(CCCc1ccccc1)C(=O)N[C@@H](CCCNC(=N)N)C(=O)O (mixture of isomers) [Example 30, N-(Indole-3-butyryl)-Leucyl-{(R/S)-2-Amino-5-phenylpentanoyl}-Arginyl-OH]",7.1
21,"CC(C)C[C@H](NC(=O)[C@H](C)NC(=O)[C@H](CC1CCCCC1)NC(=O)[C@@H]1CCCN1C(=O)[C@H](CCCCN)NC(=O)CN)C(=O)N[C@H](CSCCCc1ccccc1)C(=O)N[C@@H](CCCNC(=N)N)C(=O)O [Example 22, H-Glycyl-Lysyl-Prolyl-{(2S)-2-Amino-3-cyclohexylpropanoyl}-Alanyl-Leucyl-DCysteinyl(S-3-phenylpropyl)-Arginyl-OH] (H-GKP[Cha]AL[dC](X8)R-OH)",4.7
22,"CC(C)C[C@H](NC(=O)[C@H](C)NC(=O)[C@H](CC1CCCCC1)NC(=O)CCCCCN)C(=O)NC(CCCc1ccccc1)C(=O)N[C@@H](CCCNC(=N)N)C(=O)O (single isomer, unassigned) [Example 121]",7.15
23,"CC(C)C[C@H](NC(=O)Cc1c[nH]c2ccccc12)C(=O)N[C@@H](CCCc1ccccc1)C(=O)N[C@@H](CCCNC(=N)N)C(=O)O [Example 20, N-{Indole-3-acetyl}-Leucyl-{(S)-2-Amino-5-phenylpentanoyl}-Arginyl-OH]",6.65
24,"CC(C)C[C@H](NC(=O)CNC(=O)[C@H](CC1CCCCC1)NC(=O)[C@@H](N)CCCCN)C(=O)NC(CCCc1ccccc1)C(=O)N[C@@H](CCCNC(=N)N)C(=O)O (single isomer, unassigned) [Example 42, H-Lysyl-{(2S)-2-Amino-3-cyclohexylpropanoyl}-Glycyl-Leucyl-{(R/S)-2-Amino-5-phenylpentanoyl}-Arginyl-OH]",0.45
25,"CC(C)C[C@H](NC(=O)[C@H](C)NC(=O)[C@H](CC1CCCCC1)NC(=O)CNC(=O)CCCCCN)C(=O)NC(CCCc1ccccc1)C(=O)N[C@@H](CCCNC(=N)N)C(=O)O (single isomer, unassigned) [Example 33]",0.68
